Measured values reported in patent publication US12060360B2, “Lysyl oxidase inhibitors” (The Institute of Cancer Research: Royal Cancer Hospital, priority 2017, dated 2024).

Tests used:
[1] = test system: MMTV-PyMT breast transgenic model lung metastases; test: MMTV-PyMT transgenic mouse breast cancer model, lung metastases quantification T/C; assay type: in vivo; settings: 200 mg/kg po qd, treated/vehicle control, p<0.05
Protocol: (§1) MMTV-PyMT (Guy et al, 1992) (FVB) female mice were randomized by non-statistical methods to LOX inhibitor treatment groups from day 70 post-birth, when animals had no detectable tumour. Mice were treated daily by oral gavage with LOX inhibitor in vehicle, or daily vehicle (5% DMSO/2.5% Tween20 in water) by oral gavage. Tumour size was determined unblinded by caliper measurements of tumour length, width and depth and volume was calculated as 0.5236×length×width×depth (mm). In all experiments, mice were humanely killed and mammary tumours and lungs were collected when the primary tumours reached ethical limits or signs of ill health.
For lung metastases quantification, all mouse tissue samples were fixed in 10% formalin (Sigma) and embedded in paraffin. Samples were sectioned and hematoxylin and eosin (H&E) stained. Samples were imaged with a Leica CN400 slide scanner. Lung metastases were manually selected using Pen tool in ImageScope. Lung metastases number was counted and area was measured using ImageScope. The investigator was blinded to the experimental groups. The ratio of average metastases surface between compound treated and vehicle control treated (TIC) is calculated. The ratio of average metastases numbers between compound treated and vehicle control treated (T/C) is also calculated. Reduction in metastases area and/or in metastatses number in the compound treated group compared to vehicle-treated control group results in T/C<1. The antimetastatic efficacy of LOX inhibitors described in this invention, as measured by T/C in a model of breast cancer metastasising to lungs is shown in Table 2 and is significant (p<0.05) for all the data presented.

[2] = test system: MDA-MB-231 human breast adenocarcinoma; test: MDA-MB-231 xenografts, primary tumour volume T/C; assay type: in vivo; settings: 200 mg/kg po qd, ratio of average tumour volume treated/vehicle control, p<0.05
Protocol: (§2) All procedures involving animals were approved by the Animal Welfare and Ethical Review Body of the Institute of Cancer Research and Cancer Research UK Manchester Institute in accordance with National Home Office regulations under the Animals (Scientific Procedures) Act 1986 and according to the guidelines of the Committee of the National Cancer Research Institute Tumour size was determined by caliper measurements of tumour length, width and depth and volume was calculated as volume=0.5236×length×width×depth (mm).
MDA-MB-231 xenografts. Ncr nude female mice at 6 weeks old from Charles River were injected into the third upper nipple mammary fat pad with MDA-MB-231 Luc 4×10^6 in 100 ul PB (50:50 Matrigel). When tumours reach a mean of 80 mm^3 around 10 days post cell inoculation the animals are allocated in 4 groups of 8. LOX inhibitor treatment is then administrated by oral gavage dosing, at 0.2 ml/20 g bodyweight once daily for up to 28 consecutive days. Tumours and weights are measured twice weekly using calipers and the animals can be imaged using non invasive method by bioluminescence using IVIS 200 imaging machine, weekly using 150 mg/kg luciferin administrate intraperitoneal or subcutaneous. At the end of the study the animals are culled, and samples taken, fixed or snap frozen in liquid nitrogen. Frozen samples kept at −80 degree centigrade until being analyzed and the fixed samples stained according to desired marker.
(§3) For therapeutic efficacy assessment, the ratio of average tumour volume between compound treated and vehicle control treated (T/C) is calculated. Reduction in tumour volume in the compound treated group compared to vehicle-treated control group results in T/C<1. The efficacy of LOX inhibitors described in this invention, as measured by T/C in a pancreatic cancer model, a colorectal cancer model and a breast cancer model is shown in Table 2 and is significant (p<0.05) for all the data presented.

[3] = test system: MMTV-PyMT breast transgenic model primary tumour; test: MMTV-PyMT transgenic mouse breast cancer model, primary tumour T/C; assay type: in vivo; settings: 200 mg/kg po qd; ratio of average tumour volume treated/vehicle control; p<0.05
Protocol: as §2, §1, §3

[4] = test system: SW620 human colorectal carcinoma cells (mutant RAS); test: SW620 xenografts, primary tumour volume T/C; assay type: in vivo; settings: 200 mg/kg po qd; ratio of average tumour volume treated/vehicle control; p<0.05
Protocol: as §2
SW620 xenografts: NCr mice were inoculated subcutaneously in the right flank with 5×10^6 SW620 cells at 100 ul suspension per animal. Groups of 7-8 mice were assigned to treatment following stratified allocation of tumour volumes with a median size of circa 100 mm^3. […] Tumours and weights are measured twice weekly using calipers. […] Frozen samples are kept at −80 degree centigrade until being analysed and the fixed samples stained according to the desired marker.
as §3, with “Reduction in tumour volume in the compound treated group compared to vehicle-treated control group results in T/C<1.” left out

[5] = target: T1, LOX (Mus musculus, UniProt P28301); test: LOX activity in cysts assay (LOX-roGFP2 biosensor, MDCK cysts); assay type: cell-based; settings: MDCK cysts
T1 construct: Full length LOX cDNA was then PCR cloned into pEGFP-N1 (Clonetech), or biosensor vector proGFP2-N1; expressed in transfected cells; host or cells: MDCK cells grown as cysts on Matrigel, G418-selected
T1 sequence (P28301 163-411): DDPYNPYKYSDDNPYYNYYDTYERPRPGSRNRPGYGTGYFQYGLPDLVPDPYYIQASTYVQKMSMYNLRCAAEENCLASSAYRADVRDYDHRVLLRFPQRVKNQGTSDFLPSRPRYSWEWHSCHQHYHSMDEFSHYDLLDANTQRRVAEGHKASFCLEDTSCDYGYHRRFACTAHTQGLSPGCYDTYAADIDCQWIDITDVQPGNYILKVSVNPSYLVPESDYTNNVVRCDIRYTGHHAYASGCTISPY
Summary of the method: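 Live MDCK cysts grown 10 days on Matrigel and expressing mouse LOX fused to the roGFP2 redox biosensor, with inhibitors added 30 min before confocal imaging. Oxidised/reduced ratio (405/488 nm excitation, 500–530 nm emission) at the basal cyst surface taken as LOX activity. DMSO defines 0% and 1 mM BAPN 100% inhibition.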

Compound: CC1(C)C[C@@H]2CN(C(=O)N3CCS(=O)(=O)CC3)C[C@H]1N(c1ccc(N3CCS(=O)(=O)CC3)cc1)C2 [Example 8, (1,1-dioxidothiomorpholino)((1S,5S)-6-(4-(1,1-dioxidothiomorpholino)phenyl)-9,9-dimethyl-3,6-diazabicyclo[3.2.2]nonan-3-yl)methanone]
- T/C MMT-PyMT breast transgenic model - metastases b) Area ([1]; lung metastases area): b) 0.012
- T/C MMT-PyMT breast transgenic model - metastases a) Count ([1]; lung metastases number): a) 0.1
- response vs control in vivo at 200 mg/kg [2]: 54%
- T/C MMT-PyMT breast transgenic model - primary tumour [3]: 0.22
- T/C SW620 human colorectal carcinoma cells (mutant RAS) - primary tumour [4]: 0.48
- inhibition at 2.5 µM ([5]; 2.5 uM (stated in cell), DMSO = 0%, BAPN 1 mM = 100% inhibition, read-out: LOX biosensor inhibition (cyst) @ 2.5 uM): 100%
- IC50 ([5]; roGFP2 ratio at basal surface, read-out: LOX biosensor IC50 (cyst)): 540 nM
